From patent US12371428B2 (Exelixis, Inc., priority 2019, dated 2025)

Columns and labels:
[1] = molecular target: Human KDR (residues 790-1356) (Homo sapiens (Human), UniProt P35968); assay: Human KDR kinase assay, HTRF KinEase (Example B-2); format: biochemical; details: protocol of Example B-2 (other compounds)
Summary of the method: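 Human KDR residues 790-1356 (0.1 ng/well) in buffer with 5 mM MgCl2, 1 mM MnCl2, 1 mM DTT, biotinylated peptide substrate, ATP at Km (4.0 μM), 3% DMSO, 10 compound concentrations; 40 min, room temperature. EDTA stop, streptavidin-XL665/Eu-TK antibody HTRF read 665/620 nm; 4-parameter IC50.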

[2] = molecular target: Human MER (residues 528-999) (Homo sapiens (Human), UniProt Q12866); assay: Human Mer kinase assay, HTRF KinEase (Example C-2); format: biochemical; details: protocol of Example C-2 (other compounds)
Summary of the method: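 IC50 values from 10 concentrations via 4-parameter logistic fit of […], with DMSO as 100% and 1 μM reference compound as 0% activity. Reaction: MER kinase domain 528-999, 1 ng/well, 40 μM ATP (Km), biotin peptide, 5 mM MgCl2, 1 mM DTT, 3% DMSO, room temperature 60 min; HTRF streptavidin-XL665/Eu-antibody detection.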

[3] = molecular target: Mer (phospho-Mer, MERTK-transfected 293A cells) (Homo sapiens (Human), UniProt Q12866); assay: Mer autophosphorylation ELISA in transient transfected 293A cells (Example H); format: cell-based; details: cellular activity; Mer autophosphorylation ELISA in transient transfected 293A cells
Summary of the method: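 Inhibition of cellular Mer autophosphorylation is determined in 293A cells transiently expressing human MERTK after 1 h compound exposure (8 concentrations, serum-free, 0.3% DMSO). Phospho-Mer in clarified lysates is measured by ELISA, with DMSO and reference-inhibitor wells defining the 100% and 0% activity limits.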

Chain of Human MER (residues 528-999) (Q12866 528-999): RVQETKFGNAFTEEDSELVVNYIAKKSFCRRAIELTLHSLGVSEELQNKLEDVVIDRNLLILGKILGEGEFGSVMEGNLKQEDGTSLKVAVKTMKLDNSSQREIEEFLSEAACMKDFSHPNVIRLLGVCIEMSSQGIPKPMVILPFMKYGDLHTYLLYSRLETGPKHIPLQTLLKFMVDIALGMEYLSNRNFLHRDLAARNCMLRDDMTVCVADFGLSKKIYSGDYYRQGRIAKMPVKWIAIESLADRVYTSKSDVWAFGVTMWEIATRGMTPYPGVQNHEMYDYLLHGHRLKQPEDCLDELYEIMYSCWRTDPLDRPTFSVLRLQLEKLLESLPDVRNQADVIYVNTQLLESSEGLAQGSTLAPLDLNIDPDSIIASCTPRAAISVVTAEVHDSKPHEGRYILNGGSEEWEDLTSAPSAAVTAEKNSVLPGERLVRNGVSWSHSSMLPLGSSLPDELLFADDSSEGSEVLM
Chain of Mer (phospho-Mer, MERTK-transfected 293A cells) (Q12866 21-999): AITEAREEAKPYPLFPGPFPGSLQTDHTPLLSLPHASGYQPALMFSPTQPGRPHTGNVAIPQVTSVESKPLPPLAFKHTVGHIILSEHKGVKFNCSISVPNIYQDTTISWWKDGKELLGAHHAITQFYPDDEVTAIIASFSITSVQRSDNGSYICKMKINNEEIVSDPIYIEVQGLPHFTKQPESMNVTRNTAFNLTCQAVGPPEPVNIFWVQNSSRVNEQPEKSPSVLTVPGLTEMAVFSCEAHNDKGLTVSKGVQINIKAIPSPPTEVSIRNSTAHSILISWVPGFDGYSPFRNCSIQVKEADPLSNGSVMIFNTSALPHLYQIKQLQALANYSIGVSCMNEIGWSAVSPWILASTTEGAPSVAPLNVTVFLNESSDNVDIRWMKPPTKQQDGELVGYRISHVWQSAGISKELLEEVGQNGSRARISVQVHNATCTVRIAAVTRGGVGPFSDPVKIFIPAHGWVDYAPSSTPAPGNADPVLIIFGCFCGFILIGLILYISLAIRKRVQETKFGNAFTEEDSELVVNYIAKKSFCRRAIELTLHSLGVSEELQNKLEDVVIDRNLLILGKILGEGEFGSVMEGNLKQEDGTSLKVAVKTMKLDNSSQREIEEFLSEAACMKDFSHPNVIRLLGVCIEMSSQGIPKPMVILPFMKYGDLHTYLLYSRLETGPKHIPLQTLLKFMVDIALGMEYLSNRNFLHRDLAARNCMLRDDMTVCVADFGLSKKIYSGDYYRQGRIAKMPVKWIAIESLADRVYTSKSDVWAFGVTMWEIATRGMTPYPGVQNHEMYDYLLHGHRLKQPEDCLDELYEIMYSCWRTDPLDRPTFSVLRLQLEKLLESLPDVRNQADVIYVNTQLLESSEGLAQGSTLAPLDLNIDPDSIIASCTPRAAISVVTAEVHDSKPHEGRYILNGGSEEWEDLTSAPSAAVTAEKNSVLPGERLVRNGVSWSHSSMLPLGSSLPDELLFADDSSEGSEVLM
Chain of Human KDR (residues 790-1356) (P35968 790-1356): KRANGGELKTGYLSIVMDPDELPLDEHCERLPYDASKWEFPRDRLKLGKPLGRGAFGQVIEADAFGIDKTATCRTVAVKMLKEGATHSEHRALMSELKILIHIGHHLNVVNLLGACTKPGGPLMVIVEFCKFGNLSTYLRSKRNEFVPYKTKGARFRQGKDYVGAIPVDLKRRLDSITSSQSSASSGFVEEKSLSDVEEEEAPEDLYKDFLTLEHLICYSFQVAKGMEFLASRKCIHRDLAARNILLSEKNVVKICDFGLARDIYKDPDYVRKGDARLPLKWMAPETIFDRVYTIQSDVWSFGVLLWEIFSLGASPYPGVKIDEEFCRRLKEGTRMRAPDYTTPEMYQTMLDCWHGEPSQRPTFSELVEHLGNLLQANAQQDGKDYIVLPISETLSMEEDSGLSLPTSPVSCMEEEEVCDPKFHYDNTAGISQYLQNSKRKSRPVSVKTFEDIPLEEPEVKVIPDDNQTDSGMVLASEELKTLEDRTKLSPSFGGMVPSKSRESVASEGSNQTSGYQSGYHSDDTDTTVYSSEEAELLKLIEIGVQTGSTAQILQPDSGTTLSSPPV

IC50 [1] [µM]	IC50 [2] [µM]	IC50 [3] [µM]	SMILES
< 0.1	< 0.1	< 0.1	COc1cc2nccc(Oc3ccc(NC(=O)c4c(C)cc(C)n(-c5ccc(F)cc5)c4=O)cc3)c2nc1OC [Compound 288, N-[4-[(6,7-Dimethoxy-1,5-naphthyridin-4-yl)oxy]phenyl]-1-(4-fluorophenyl)-4,6-dimethyl-2-oxopyridine-3-carboxamide]
< 0.1	< 0.1	< 0.1	COc1cnc2c(Oc3ccc(NC(=O)c4c(C)cc(C)n(-c5ccc(F)cc5)c4=O)cc3)ccnc2c1 [Compound 289, 1-(4-Fluorophenyl)-N-[4-[(7-methoxy-1,5-naphthyridin-4-yl)oxy]phenyl]-4,6-dimethyl-2-oxopyridine-3-carboxamide]
< 0.1	< 0.1	< 0.1	COc1ccc2nccc(Oc3ccc(NC(=O)c4c(C)cc(C)n(-c5ccc(F)cc5)c4=O)cc3)c2n1 [Compound 290, 1-(4-Fluorophenyl)-N-[4-[(6-methoxy-1,5-naphthyridin-4-yl)oxy]phenyl]-4,6-dimethyl-2-oxopyridine-3-carboxamide]
> 0.3	< 0.1	< 0.1	COc1cnc2c(Oc3ccc(NC(=O)c4cccn(-c5ccc(F)cc5)c4=O)cc3F)ccnc2c1 [Compound 291, N-[3-Fluoro-4-[(7-methoxy-1,5-naphthyridin-4-yl)oxy]phenyl]-1-(4-fluorophenyl)-2-oxopyridine-3-carboxamide]

The next lines start with the molecule.

SMILES	IC50 [1] [µM]	IC50 [2] [µM]	IC50 [3] [µM]
COc1cc2nccc(Oc3ccc(NC(=O)c4cn(C)c(CO)c(-c5ccc(F)cc5C)c4=O)cc3F)c2nc1OC [Compound 282, N-[4-[(6,7-Dimethoxy-1,5-naphthyridin-4-yl)oxy]-3-fluorophenyl]-5-(4-fluoro-2-methylphenyl)-6-(hydroxymethyl)-1-methyl-4-oxopyridine-3-carboxamide]	> 0.3	< 0.1	< 0.1
CCn1cc(C(=O)Nc2ccc(Oc3ccnc4cc(OC)c(OC)nc34)c(F)c2)c(=O)c(-c2ccc(F)cc2C)c1CO [Compound 283, N-[4-[(6,7-Dimethoxy-1,5-naphthyridin-4-yl)oxy]-3-fluorophenyl]-1-ethyl-5-(4-fluoro-2-methylphenyl)-6-(hydroxymethyl)-4-oxopyridine-3-carboxamide]	> 0.3	< 0.1	< 0.1
CCn1cc(C(=O)Nc2ccc(Oc3ccnc4cc(OC)c(OC)nc34)cc2)c(=O)c(-c2ccc(F)cc2C)c1CO [Compound 284, N-[4-[(6,7-Dimethoxy-1,5-naphthyridin-4-yl)oxy]phenyl]-1-ethyl-5-(4-fluoro-2-methylphenyl)-6-(hydroxymethyl)-4-oxopyridine-3-carboxamide]	> 0.3	< 0.1	< 0.1
CCn1cc(C(=O)Nc2ccc(Oc3ccnc4cc(OC)cnc34)c(F)c2)c(=O)c(-c2ccc(F)cc2C)c1CO [Compound 285, 1-Ethyl-N-[3-fluoro-4-[(7-methoxy-1,5-naphthyridin-4-yl)oxy]phenyl]-5-(4-fluoro-2-methylphenyl)-6-(hydroxymethyl)-4-oxopyridine-3-carboxamide]	> 0.3	< 0.1	< 0.1
COc1cc2nccc(Oc3ccc(NC(=O)c4c(C)ccn(-c5ccc(F)cc5)c4=O)cc3F)c2nc1OC [Compound 286, N-[4-[(6,7-Dimethoxy-1,5-naphthyridin-4-yl)oxy]-3-fluorophenyl]-1-(4-fluorophenyl)-4-methyl-2-oxopyridine-3-carboxamide]	< 0.1	< 0.1	< 0.1
COc1ccc2nccc(Oc3ccc(NC(=O)c4c(C)ccn(-c5ccc(F)cc5)c4=O)cc3F)c2n1 [Compound 287, N-[3-Fluoro-4-[(6-methoxy-1,5-naphthyridin-4-yl)oxy]phenyl]-1-(4-fluorophenyl)-4-methyl-2-oxopyridine-3-carboxamide]	< 0.1	< 0.1	< 0.1
